Assay results as given in patent publication US7625929B2, “Oxophenyl-cyclohexyl-propanolamine derivatives, production and use thereof in therapeutics” (sanofi-aventis, priority 2002, dated 2009).

| melting point | Structure (SMILES) |
| --- | --- |
| 125 °C | CS(=O)(=O)c1cc(OC[C@@H](O)CN[C@H]2CC[C@H](c3ccc(C(=O)N4CCC5(CCCc6ccccc65)CC4)cc3)CC2)ccc1O [compound No. 17, trans-4-{[(2S)-3-({4-[4-(3,4-dihydro-1′H-spiro[naphthalene-1,4′-piperidin]-1′-ylcarbonyl)phenyl]cyclohexyl}amino)-2-hydroxypropyl]-oxy}-2-(methylsulfonyl)phenol] |
| 125 °C | CS(=O)(=O)c1cc(OC[C@@H](O)CN[C@H]2CC[C@H](c3ccc(C(=O)N4CCC5(CCc6ccccc65)CC4)cc3)CC2)ccc1O [compound No. 15, trans-4-{[(2S)-3-({4-[4-(2,3-dihydro-1′H-spiro[indene-1,4′-piperidin]-1′-ylcarbonyl)phenyl]-cyclohexyl}amino)-2-hydroxypropyl]oxy}-2-(methylsulfonyl)phenol] |
| 125 °C | CS(=O)(=O)c1cc(OC[C@@H](O)CN[C@H]2CC[C@H](c3ccc(C(=O)N4CCC5(CC4)Cc4ccccc4C5)cc3)CC2)ccc1O [compound No. 13, trans-4-{[(2S)-3-({4-[4-(1,3-dihydro-1′H-spiro[indene-2,4′-piperidin]-1′-ylcarbonyl)phenyl]-cyclohexyl}amino)-2-hydroxypropyl]oxy}-2-(methylsulfonyl)phenol] |
